Results on 16 compounds are retold here after patent US20190183812A1, “Compounds For The Treatment Of Neuromuscular Disorders” (NMD PHARMA A/S, priority 2017, published 2019).

Test [1] addresses rat soleus muscles. In words: Tubocurarine concentration required to depress nerve-stimulated force by 50% (Kd,tub), combination with acetylcholinesterase inhibitors. As to the method: FIGS. 5A-5E. […] Muscles from 4-week-old rats were stimulated to contract by activating the motor nerve with short duration pulses in field stimulation. Muscles contracted every 10 min for 2 s in response to 30 Hz stimulation. Four different experimental conditions were used. […] After this pre-incubation, increasing concentrations of tubocurarine were added to the bath solutions with 60 min (corresponding to six contractions) between each increase in tubocurarine. […] FIG. 5C similar to FIG. 5A but this muscle had been pre-incubated with neostigmine. […] The force integral (AUC) was determined at each tubocurarine concentration. Such AUC determinations were plotted against tubocurarine concentration for each muscle.
CIC-1 is a novel target in treatment of neuromuscular complications and it was therefore explored whether this approach for symptomatic treatment could be used in combination with existing symptomatic treatment approaches. In myasthenia gravis, which in isolated muscles was mimicked by tubocurarine, the symptoms of muscle fatigue are most commonly treated with inhibitors of acethylcholineesterase of which neostigmine and pyridostigmine are examples. Also, neostigmine is the most commonly used reversal agent of neuromuscular blocked after surgery. […] FIG. 5A-D show recordings of nerve-stimulated force production at different tubocurarine concentrations when tested under the four experimental conditions. […] To quantify the effect of compounds on tubocurarine sensitivity, the force at the different tubocurarine concentrations was determined. In plots of nerve-stimulated force against tubocurarine concentration (FIG. 5E) Kd,tub was determined by fitting four parameter sigmoidal functions to the data and the Kd,tub for the different compounds have been collected in Table 4.

Test [2] has as its system isolated rat soleus muscles. Nature of the test: Recovery of nerve-stimulated force in isolated rat soleus muscles at elevated extracellular Mg2+ (3.5 mM). On the procedure:
(§1) Experiments were performed using rat soleus muscles from either young (4-wk-old) or adult Wistar rats (12-14-week-old). Animal handling, killing and isolation of muscle is described elsewhere All experiments were performed using normal Krebs-Ringer bicarbonate solution (NKR). In solutions with elevated Mg^2+, MgCl2 was added to NKR-solution causing minor increases in osmolarity and ionic strength. In solutions with elevated K^+, 4 mM NaCl was replaced by 4 mM KCl in the NKR.
(§2) In all contraction experiments, isometric force production was determined and force produced during contractions was quantified by measuring the integral of the force response (AUC). Stimulation and force recordings have been described elsewhere. […] In these latter experiments, extracellular recordings of action potentials (M-waves) could be measured without temporal overlap with stimulation artefacts.
The aim was to find compounds that by inhibition of CIC-1 channels can recover nerve-stimulated force under conditions of fatigue including conditions where fatigue is caused by compromised neuromuscular transmission. […]
The next series of experiments determined whether the compounds that recovered nerve-stimulated force in the presence of tubocurarine could also recover nerve-stimulated force at elevated extracellular Mg^2+.

Test [3] concerns isolated rat soleus muscles. Nature of the test: Recovery of nerve-stimulated force in isolated rat soleus muscles exposed to sub-maximal tubocurarine. As to the method: as §1, §2
The aim was to find compounds that by inhibition of CIC-1 channels can recover nerve-stimulated force under conditions of fatigue including conditions where fatigue is caused by compromised neuromuscular transmission. Neuromuscular transmission dysfunction can develop because of both pre- and/or post-synaptic complications in connection with a disorder or as part of neuromuscular blockade during/after surgery. In the initial series of drug testing, experiments were performed with isolated muscles in the presence of sub-maximal ACh receptor antagonist tubocurarine. Since the inclusion of tubocurarine caused a partial loss of neuromuscular transmission this experiment mimics the conditions in myasthenia gravis and neuromuscular blockade. To mimic conditions with pre-synaptic complication (Lambert Eaton syndrome, motor neuron disorder, polyneuropathy) the intact nerve-muscle preparations were incubated at elevated extracellular Mg^2+, which is known to suppress release of ACh from nerve terminals of motor neurons.
To identify CIC-1 inhibitors that could be used for treatment of neuromuscular disorders we repeated the experiment shown in FIG. 2A but instead of adding 9-AC we added the compounds of interest in different concentrations within the range from 10 to 500 μM. […] For comparison with the muscle only exposed to tubocurarine (grey trace), the two traces have been overlaid. […] For comparison, muscles only exposed to tubocurarine have been included. The dotted line indicates the recovery of force with C8 when compared to the force production before its addition. This value was used in Table 1 for evaluation of the efficacy of the different compounds in recovering force.

The next test addresses T1, human CIC-1 channels (Homo sapiens, UniProt P35523).
T1 construct: host or cells: CHO (Chinese hamster ovary) cells
In words: Automated patch-clamp on human CIC-1 expressed in CHO cells. It counts as cell-based. The conditions noted are these: compound added to the intracellular solution vs vehicle control patches; positive shift reflects CIC-1 inhibition. As to the method: The investigatory goal of these experiments was to evaluate how compounds affect the open probability and current amplitude of human CIC-1 channels expressed in CHO cells. Experiments were performed using an automated patch clamp system that allowed high throughput testing of whole cell patches together with both intracellular and extracellular addition of compound.
Automated whole cell patch clamp experiments were performed with the Qpatch 16 system (Sophion Bioscience, Ballerup, Denmark) at room temperature. Data acquisition and analysis were performed in the Qassay software (ver. 5.6, Odense).
To evoke CIC-1 currents in whole cell patches, the membrane potential was initially stepped from a holding potential of −30 mV to +60 mV for 100 ms and then to various test voltages (sweeps) ranging from +120 mV to −140 mV in steps of 20 mV for 300 ms. To obtain tail currents, the membrane potential was stepped to −100 mV after each test voltage for 300 ms and then relaxed to −30 mV for 2 sec between sweeps (FIG. 3). I/V relationships for whole cell instant and steady state current amplitudes were obtained by plotting average current densities at the beginning and at the end of the 300 ms step against the membrane potential (FIG. 4).
In order to determine the relative overall open probability (P0), the instantaneous tail currents were normalized to the maximal tail current obtained following the most positive voltage step and plotted against the test voltage. Plots of normalized tail currents from each whole cell patch were then fitted to a Boltzmann function allowing determination of half activation voltages (V1/2, FIG. 5).
For automated patch clamp experiments extracellular solutions contained: 2 mM CaCl2, 1 mM MgCl2, 10 mM HEPES, 4 mM KCl, 145 mM NaCl, 10 mM Glucose, pH adjusted to 7.4 with NaOH (2 M). Osmolality adjusted to ˜320 using sucrose.
Intracellular solutions contained: 80 mM CsF, 60 mM CsCl, 5/1 mM KOH/EGTA, 10 mM HEPES, 10 mM NaCl, pH adjusted to 7.2 with NaOH (2 M). Osmolality adjusted to ˜320 mOsm using sucrose.
Cells used in patch clamp experiments were Chinese hamster ovary cells (CHO) constitutively expressing human CIC-1 channels. The amino acid sequence encoded by the cDNA used to create this cell line was identical to the translated sequence for GenBank accession number NM_000083.2. Cells were produced by Charles River (Catalogue CT6175, Cleveland Ohio, USA) in a cryopreserved format. Experiments were performed on the cells directly after thawing (3×10^6 cells used in each experiment).
To evaluate the compound effect on CIC-1, when applied directly to the intracellular side of the cell membrane, the half activation voltage, V1/2, was determined from whole cell patches with compound added to the intracellular solution and then compared to V1/2 determined from control cell patches with only vehicle added to the intracellular solution. Additionally, the effect of extracellular added compound was evaluated by determine V1/2 and steady state current amplitudes before and after exchanging the extracellular solution to contain compound.
The difference in half activation voltage of CIC-1 channels, […]V1/2, was determined as the difference between the cell patches treated intracellularly with compound and control cells patches and is reported in Table 4 below. A positive shift in […]V1/2 is reflecting CIC-1 channel inhibition by the tested compound. P-values of <0.05 is considered significant.

Test [4] deals with rat soleus muscles. Nature of the test: Mg2+ concentration required to depress nerve-stimulated force by 50% (Kd,Mg2+), combination with 3,4-AP. The conditions noted are these: 3,4-AP (10 μM) alone. As to the method: FIGS. 6A-6E. […] Muscles from 4-week-old rats were stimulated to contract by activating the motor nerve with short duration pulses in field stimulation. Muscles contracted every 10 min for 2 s in response to 30 Hz stimulation. Four different experimental conditions were used. […] C) similar to A) but this muscle had been pre-incubated with 3,4-AP. […] The force integral (AUC) was determined at each extracellular Mg^2+ concentration. AUC was plotted against Mg^2+ concentration and the data was fitted to a sigmoidal function. This provided the extracellular Mg^2+ concentration that was required to reduce the nerve-stimulated force to 50% (Mg50) under the four different conditions (see Table 5).
While the use of tubocurarine mimics conditions with reduced neuromuscular transmission due to post-synaptic dysfunction (myasthenia gravis, neuromuscular blockade), the experiments with elevated extracellular Mg^2+ mimics conditions with pre-synaptic dysfunction akin to a range of neuromuscular disorders including Lambert Eaton syndrome, motor neuron disorders and polyneuropathy. Patients with Lambert Eaton syndrome are commonly treated with inhibitors of voltage gated K^+ channels such as 3,4-diaminopyridine (3,4-AP). Based on this it was determined whether recovery of nerve-stimulated force at elevated extracellular Mg^2+ with CIC-1 inhibiting compounds could be added to force recovery with 3,4-AP. […] FIG. 6A-D show recordings of nerve-stimulated force production at different Mg^2+ concentrations when tested under these four experimental conditions. […] To quantify the effect of compounds on Mg^2+ sensitivity the force at the different Mg^2+ concentrations was determined. In plots of nerve-stimulated force against Mg^2+ concentration (FIG. 6E) the Kd,Mg^2+ was determined by fitting four parameter sigmoidal function to the data. Kd, Mg^2+ for the different compounds have been collected in Table 5.

The mark [5] stands for this setting: Rattus norvegicus, 40 min; read-out: 50 μM % change after addition.

Where a name gives a salt, the structure may show the parent alone. Read-outs that look alike come from different tables or passages of the source.

T1 sequence (P35523 whole entry): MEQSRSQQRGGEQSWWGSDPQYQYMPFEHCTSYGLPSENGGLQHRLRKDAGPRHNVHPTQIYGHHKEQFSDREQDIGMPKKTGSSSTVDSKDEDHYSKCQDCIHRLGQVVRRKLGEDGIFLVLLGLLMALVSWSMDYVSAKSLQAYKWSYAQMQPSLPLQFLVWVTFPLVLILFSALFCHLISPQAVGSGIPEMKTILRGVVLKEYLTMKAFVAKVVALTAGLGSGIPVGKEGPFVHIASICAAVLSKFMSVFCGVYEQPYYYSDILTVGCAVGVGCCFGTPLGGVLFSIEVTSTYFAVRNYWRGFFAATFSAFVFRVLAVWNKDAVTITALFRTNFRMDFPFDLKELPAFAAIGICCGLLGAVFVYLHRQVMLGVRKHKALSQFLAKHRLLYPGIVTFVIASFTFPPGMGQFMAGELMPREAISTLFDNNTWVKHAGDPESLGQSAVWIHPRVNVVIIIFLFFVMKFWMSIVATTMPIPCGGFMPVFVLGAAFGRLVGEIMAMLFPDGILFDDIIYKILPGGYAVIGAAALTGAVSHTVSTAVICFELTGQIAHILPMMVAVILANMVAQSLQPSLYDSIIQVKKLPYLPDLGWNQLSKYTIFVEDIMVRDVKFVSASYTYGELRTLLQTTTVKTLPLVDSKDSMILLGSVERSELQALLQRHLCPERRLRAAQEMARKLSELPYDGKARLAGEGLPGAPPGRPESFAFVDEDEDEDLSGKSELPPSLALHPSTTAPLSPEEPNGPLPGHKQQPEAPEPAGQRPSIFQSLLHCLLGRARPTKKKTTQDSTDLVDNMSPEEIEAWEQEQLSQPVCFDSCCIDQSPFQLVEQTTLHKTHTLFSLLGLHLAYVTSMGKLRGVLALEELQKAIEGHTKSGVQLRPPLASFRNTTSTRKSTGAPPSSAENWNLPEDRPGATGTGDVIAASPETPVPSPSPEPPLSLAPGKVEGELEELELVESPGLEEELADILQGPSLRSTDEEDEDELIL

On to `CN(C)C(=O)Oc1ccc[n+](C)c1` [Pyridostigmine, pyridostigmine, reference compound], for which the Kd (as a rule, the equilibrium constant for the complex coming apart) on rat soleus muscles [1] (Pyridostigmine (100 nM) alone) came to 0.127 ± 0.015 µM.

`O=C(O)c1c2ccccc2cc2ccccc12` [Compound 9-AC, 9-anthracenecarboxylic acid, reference compound]: the “recovery of force and M-wave signal” value in test [2] is “marked recovery of both force and M-wave signal”; in test [3] (tubocurarine), “marked recovery of both force and M-wave signal”.

Turning to `C[C@H](Oc1ccc(Cl)cc1C1CC1)C(=O)O` [Compound A-4, (2S)-2-(4-chloro-2-cyclopropylphenoxy)propanoic acid], at human CIC-1 channels, the ΔV½ is listed as 8.8 mV.

For the compound `C#Cc1cc(Br)ccc1O[C@@H](C)C(=O)O` [Compound A-19, (2S)-2-(4-bromo-2-ethynylphenoxy)propanoic acid], the ΔV½ at human CIC-1 channels amounted to 7.7 mV.

Regarding `C=Cc1cc(Br)ccc1O[C@@H](C)C(=O)O` [Compound A-17, (2S)-2-(4-bromo-2-ethenylphenoxy)propanoic acid], on human CIC-1 channels, the ΔV½ was determined as 10.3 mV.

Consider `CC(Oc1ccc(Cl)cc1)C(=O)Oc1ccc(Cl)cc1` (centres unmarked) [Compound C11, 4-chlorophenyl 2-(4-chlorophenoxy)propanoate], for which the activation at 50 µM in test [3] (Rattus norvegicus, 40 min, read-out: 50 μM % change after addition) is 46%.

Turning to `C#Cc1cc(Cl)ccc1O[C@@H](C)C(=O)O` [Compound A-20, (2S)-2-(4-chloro-2-ethynylphenoxy)propanoic acid], the ΔV½ at human CIC-1 channels worked out at 26.4 mV.

On to `CC(C(=O)O)S(=O)(=O)c1ccc(F)cc1` (centres unmarked) [Compound C6, 2-(4-fluorobenzenesulfonyl)propanoic acid], for which the activation at 50 µM in test [3] (setting [5]) is -11%.

`COCC(C)C(Oc1ccc(Br)cc1)C(=O)O` (centres unmarked) [Compound C21, 2-(4-bromophenoxy)-4-methoxy-3-methylbutanoic acid]: in test [3] (setting [5]), the activation at 50 µM was -3%.

For `CN(C)C(=O)Oc1cccc([N+](C)(C)C)c1` [Neostigmine, neostigmine, reference compound], at rat soleus muscles [1] (Neostigmine (10 nM) alone), the Kd came out at 0.166 ± 0.013 µM.

`Nc1ccncc1N` [3,4-AP, 3,4-diaminopyridine, reference compound]: the Kd on rat soleus muscles [4] came to 5800 ± 300 µM.

For the compound `C[C@H](OCc1ccccc1)C(=O)O` [Compound C5, (2S)-2-(benzyloxy)propanoic acid], the activation at 50 µM in test [3] (setting [5]) was -7%.

As to `C[C@H](Oc1ccc(Br)cc1C=C(F)F)C(=O)O` [Compound A-36, (2S)-2-[4-bromo-2-(2,2-difluoroethenyl)phenoxy]propanoic acid], the ΔV½ at human CIC-1 channels came to 21.5 mV.

In the case of `NCC(Oc1ccc(F)cc1)C(=O)O` (centres unmarked) [Compound C9, 3-amino-2-(4-fluorophenoxy)propanoic acid hydrochloride], the activation at 50 µM in test [3] (setting [5]) is -14%.

As to `CCC(=O)c1cc(Cl)ccc1O[C@@H](C)C(=O)O` [Compound A-30, (2S)-2-(4-chloro-2-propanoylphenoxy)propanoic acid], the ΔV½ on human CIC-1 channels is 6.2 mV.

For the compound `CCC(Oc1ccc(Cl)cc1)C(=O)O` (centres unmarked) [Compound C7, 2-(4-chlorophenoxy)butanoic acid], the activation at 50 µM in test [3] (setting [5]) is -12%.
